Reference: US20260265246A1 (ICAHN SCHOOL OF MEDICINE AT MOUNT SINAI, priority 2021, published 2026)
Like-named read-outs stand apart in the source and are kept apart here.

Columns and labels:
5HT2A receptor [1] = target: T1, 5HT2A receptor (Homo sapiens, UniProt P28223); assay: biochemical; type: binding; design: expressed in transfected cells; crude membranes
5HT2A receptor [2] = target: T1, 5HT2A receptor; assay: cell-based; design: expressed in transfected cells; host or cells: HEK293T cells, transient co-transfection; conditions: for Emax: HEK-293T
[3] = 5HT2A Ki (nM), secondary binding assay, Cheng-Prusoff
[4] = BRET2 Gαq dissociation, HEK293T, read-out: 5HTA Gq EC50
[5] = BRET2 Gαq dissociation, HEK293T, normalized to 5-HT, read-out: 5HTA Gq Emax (%)
[6] = 5HT2A Ki (nM), secondary radioligand binding, Ki from IC50 by Cheng-Prusoff
[7] = 5HT2A Gq EC50 (nM), BRET2 Gαq dissociation, HEK293T cells
[8] = BRET2 Gαq dissociation, HEK293T cells, normalized to 5-HT, read-out: 5HT2A Gq Emax (%)
[9] = 5HTA Gq EC50 (nM), BRET2 Gαq dissociation, HEK293T
[10] = secondary binding assay, Cheng-Prusoff, read-out: 5HT2A Ki
[11] = read-out: 5HTA Gq Emax (%), BRET2 Gαq dissociation, HEK293T, normalized to 5-HT

T1 sequence (P28223 whole entry): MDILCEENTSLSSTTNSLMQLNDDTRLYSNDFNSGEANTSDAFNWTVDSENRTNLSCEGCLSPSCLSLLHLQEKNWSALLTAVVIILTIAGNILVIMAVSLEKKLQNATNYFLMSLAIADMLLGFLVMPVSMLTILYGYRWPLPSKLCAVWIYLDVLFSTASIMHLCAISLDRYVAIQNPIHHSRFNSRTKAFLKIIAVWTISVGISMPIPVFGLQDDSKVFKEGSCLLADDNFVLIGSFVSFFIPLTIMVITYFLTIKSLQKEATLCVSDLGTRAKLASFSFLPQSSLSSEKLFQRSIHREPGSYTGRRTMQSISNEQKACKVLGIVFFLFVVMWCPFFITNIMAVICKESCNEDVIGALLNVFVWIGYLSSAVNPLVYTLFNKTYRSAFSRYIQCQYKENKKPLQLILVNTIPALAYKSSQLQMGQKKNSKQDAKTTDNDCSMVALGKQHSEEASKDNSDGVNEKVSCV

Compound | Ki (5HT2A receptor [1]; [3]) [nM] | Emax (5HT2A receptor [2]; [5]) [%] | EC50 (5HT2A receptor [2]; [9]) [nM] | further results
CCCN1CCC=C(c2n[nH]c3c(Cl)cc(F)cc23)C1 [Example 173, 7-chloro-5-fluoro-3-(1-propyl-1,2,5,6-tetrahydropyridin-3-yl)-1H-indazole] | 839 | 57.3 | – | EC50 (5HT2A receptor [2]; [4]): 84.6 nM
Cc1[nH]c2ccccc2c1C1=CCCN(C)C1 [Example 63, 2-methyl-3-(1-methyl-1,2,5,6-tetrahydropyridin-3-yl)-1H-indole] | – | – | – | Ki (5HT2A receptor [1]; [6]): 823 nM; EC50 (5HT2A receptor [2]; [7]): 162 nM; Emax (5HT2A receptor [2]; [8]): 79%
Cc1ccc2[nH]cc(C3=CCCN(C)C3)c2n1 [Example 140, 5-methyl-3-(1-methyl-1,2,5,6-tetrahydropyridin-3-yl)-1H-pyrrolo[3,2-b]pyridine] | 1130 | 62.6 | 247 | –
Cc1[nH]c2ccccc2c1C1=CCCNC1 [Example 61, 2-methyl-3-(1,2,5,6-tetrahydropyridin-3-yl)-1H-indole] | – | – | – | Ki (5HT2A receptor [1]; [6]): 805 nM; EC50 (5HT2A receptor [2]; [7]): 363 nM; Emax (5HT2A receptor [2]; [8]): 67.4%
CC(F)(F)CN1CCC=C(c2n[nH]c3c(Cl)cccc23)C1 [Example 163, 7-chloro-3-(1-(2,2-difluoropropyl)-1,2,5,6-tetrahydropyridin-3-yl)-1H-indazole] | > 10000 | 82.4 | 604 | –
CN1CCC=C(c2c[nH]c3c(O)cccc23)C1 [Example 60, 3-(1-methyl-1,2,5,6-tetrahydropyridin-3-yl)-1H-indol-7-ol] | – | – | – | Ki (5HT2A receptor [1]; [6]): 795 nM; EC50 (5HT2A receptor [2]; [7]): 440 nM; Emax (5HT2A receptor [2]; [8]): 64.3%
Clc1cccc2c(C34CNCC3C4)c[nH]c12 (single isomer, unassigned) [Example 278, 3-(3-azabicyclo[3.1.0]hexan-1-yl)-7-chloro-1H-indole] | – | – | – | Ki (5HT2A receptor [1]; [10]): 33 nM; 5HTA Gq Emax (%) (5HT2A receptor [2]; BRET2 Gαq dissociation, HEK293T, normalized to 5-HT): 58.2%; EC50 (5HT2A receptor [2]; [4]): 9.23 nM
Clc1cccc2c(C3=CCCCNC3)c[nH]c12 [Example 212, 7-chloro-3-(2,5,6,7-tetrahydro-1H-azepin-3-yl)-1H-indole] | 6240 | – | 655 | Emax (5HT2A receptor [2]; [11]): 72.5%
CN1CCOC(c2c[nH]c3c(Cl)cccc23)C1 (stereo not drawn) [Example 246, 2-(7-chloro-1H-indol-3-yl)-4-methylmorpholine] | 2140 | 69.6 | 620 | –
Cc1cc(Cl)cc2c(C3CNC3)c[nH]c12 [Example 263, 3-(azetidin-3-yl)-5-chloro-7-methyl-1H-indole] | 244 | 63.7 | 127 | –
CN1CCC=C(c2n[nH]c3ccc(C#N)cc23)C1 [Example 103, 3-(1-methyl-1,2,5,6-tetrahydropyridin-3-yl)-1H-indazole-5-carbonitrile] | – | – | – | Ki (5HT2A receptor [1]; [6]): 1390 nM; EC50 (5HT2A receptor [2]; [7]): 612 nM; Emax (5HT2A receptor [2]; [8]): 64.9%
Fc1cc(Cl)c2[nH]nc(C34CNCC3C4(F)F)c2c1 (stereo not drawn) [Example 203, 7-chloro-3-(6,6-difluoro-3-azabicyclo[3.1.0]hexan-1-yl)-5-fluoro-1H-indazole] | 1080 | 39.5 | 700 | –
CCc1ccc2[nH]cc(C3=CCCN(C)C3)c2c1 [Example 26, 5-ethyl-3-(1-methyl-1,2,5,6-tetrahydropyridin-3-yl)-1H-indole] | – | – | – | Ki (5HT2A receptor [1]; [6]): 166 nM; EC50 (5HT2A receptor [2]; [7]): 177 nM; Emax (5HT2A receptor [2]; [8]): 64.2%
c1cnc2[nH]cc(C34CNCCC3C4)c2c1 (stereo not drawn) [Example 268, 3-(3-azabicyclo[4.1.0]heptan-1-yl)-1H-pyrrolo[2,3-b]pyridine] | 5940 | 98 | 740 | –
Fc1cccc2c(C3CNC3)c[nH]c12 [Example 259, 3-(azetidin-3-yl)-7-fluoro-1H-indole] | 168 | – | 944 | Emax (5HT2A receptor [2]; [11]): 81.6%
CN1CCC=C(c2n[nH]c3cc(Cl)ccc23)C1 [Example 94, 6-chloro-3-(1-methyl-1,2,5,6-tetrahydropyridin-3-yl)-1H-indazole] | – | – | – | Ki (5HT2A receptor [1]; [6]): 1300 nM; EC50 (5HT2A receptor [2]; [7]): 309 nM; Emax (5HT2A receptor [2]; [8]): 72.1%
CCc1cccc2c(C3=CCCNC3)c(Cl)[nH]c12 [Example 66, 2-chloro-7-ethyl-3-(1,2,5,6-tetrahydropyridin-3-yl)-1H-indole] | – | – | – | Ki (5HT2A receptor [1]; [6]): 115 nM; EC50 (5HT2A receptor [2]; [7]): 213 nM; Emax (5HT2A receptor [2]; [8]): 79%
COc1ccnc2[nH]cc(C3=CCCNC3)c12 [Example 10, 4-methoxy-3-(1,2,5,6-tetrahydropyridin-3-yl)-1H-pyrrolo[2,3-b]pyridine] | – | – | – | Ki (5HT2A receptor [1]; [6]): 312 nM; EC50 (5HT2A receptor [2]; [7]): 125 nM; Emax (5HT2A receptor [2]; [8]): 66.5%
CN1CCC=C(c2c[nH]c3cnccc23)C1 [Example 135, 3-(1-methyl-1,2,5,6-tetrahydropyridin-3-yl)-1H-pyrrolo[2,3-c]pyridine] | 3540 | 77.8 | 1610 | –
Fc1cc(Cl)c2[nH]nc(C34CNCCC3C4(F)F)c2c1 (stereo not drawn) [Example 191, 7-chloro-3-(7,7-difluoro-3-azabicyclo[4.1.0]heptan-1-yl)-5-fluoro-1H-indazole] | 3040 | 83 | 1620 | –

Compound | Ki (5HT2A receptor [1]; [3]) [nM] | Emax (5HT2A receptor [2]; [5]) [%] | EC50 (5HT2A receptor [2]; [9]) [nM] | further results
C1=C(c2c[nH]c3ccncc23)CNCC1 [Example 141, 3-(1,2,5,6-tetrahydropyridin-3-yl)-1H-pyrrolo[3,2-c]pyridine] | 739 | 91.3 | 631 | –
CN1CCC2CC2(c2n[nH]c3c(Cl)cc(F)cc23)C1 (stereo not drawn) [Example 198, 7-chloro-5-fluoro-3-(3-methyl-3-azabicyclo[4.1.0]heptan-1-yl)-1H-indazole] | 1450 | 45.1 | 1160 | –
Cc1ccc2[nH]cc(C3=CCCNC3)c2n1 [Example 139, 5-methyl-3-(1,2,5,6-tetrahydropyridin-3-yl)-1H-pyrrolo[3,2-b]pyridine] | 4180 | 112 | 785 | –
CCCN1CCC=C(c2c[nH]c3ccncc23)C1 [Example 144, 3-(1-propyl-1,2,5,6-tetrahydropyridin-3-yl)-1H-pyrrolo[3,2-c]pyridine] | 8250 | 67.2 | 1180 | –
CCCN1CC=C(c2c[nH]c3c(Cl)cccc23)CC1 [Example 243, 7-chloro-3-(1-propyl-1,2,3,6-tetrahydropyridin-4-yl)-1H-indole] | 27.2 | – | 104 | Emax (5HT2A receptor [2]; [11]): 41.9%
CCCN1CCC=C(c2n[nH]c3c(Cl)cccc23)C1 [Example 123, 7-chloro-3-(1-propyl-1,2,5,6-tetrahydropyridin-3-yl)-1H-indazole] | – | – | – | Ki (5HT2A receptor [1]; [6]): 140 nM; EC50 (5HT2A receptor [2]; [7]): 142 nM; Emax (5HT2A receptor [2]; [8]): 66.9%
Clc1cccc2c(C3=CCCN(CC4CC4)C3)n[nH]c12 [Example 151, 7-chloro-3-(1-(cyclopropylmethyl)-1,2,5,6-tetrahydropyridin-3-yl)-1H-indazole] | 198 | – | 61.1 | Emax (5HT2A receptor [2]; [11]): 38.8%
CN1CC(c2c[nH]c3c(F)cccc23)C1 [Example 260, 7-fluoro-3-(1-methylazetidin-3-yl)-1H-indole] | 357 | 63.1 | 422 | –
Fc1cc(F)c2[nH]cc(C3CNC3)c2c1 [Example 264, 3-(azetidin-3-yl)-5,7-difluoro-1H-indole] | – | 44.7 | 165 | Ki (5HT2A receptor [1]; [10]): 98.8 nM
Clc1cccc2c(C3=CN4CCC3CC4)c[nH]c12 [Example 250, 3-(7-chloro-1H-indol-3-yl)-1-azabicyclo[2.2.2]oct-2-ene] | 1630 | 73.1 | 1290 | –
Fc1cc(Cl)c2[nH]cc(C3CNCCO3)c2c1 (stereo not drawn) [Example 249, 2-(7-chloro-5-fluoro-1H-indol-3-yl)morpholine] | 1020 | 72.2 | 118 | –
Cc1cccc2c(C3CNC3)c[nH]c12 [Example 258, 3-(azetidin-3-yl)-7-methyl-1H-indole] | 674 | – | 444 | Emax (5HT2A receptor [2]; [11]): 82.1%
Clc1cccc2c(C3=CC4CCC3NC4)n[nH]c12 (stereo not drawn) [Example 223, 6-(7-chloro-1H-indazol-3-yl)-2-azabicyclo[2.2.2]oct-5-ene] | 1920 | – | 717 | Emax (5HT2A receptor [2]; [11]): 89.7%
CN1CC2CC2(c2n[nH]c3c(Cl)cccc23)C1 (stereo not drawn) [Example 183, 7-chloro-3-(3-methyl-3-azabicyclo[3.1.0]hexan-1-yl)-1H-indazole] | 595 | – | 251 | Emax (5HT2A receptor [2]; [11]): 69.7%
CCCN(CCC)C1CCC=C(c2n[nH]c3c(Cl)cccc23)C1 (stereo not drawn) [Example 172, 3-(7-chloro-1H-indazol-3-yl)-N,N-dipropylcyclohex-3-en-1-amine] | > 10000 | 66.4 | 4020 | –
Clc1cccc2c(C34CNCC3C4)n[nH]c12 (stereo not drawn) [Example 180, 3-(3-azabicyclo[3.1.0]hexan-1-yl)-7-chloro-1H-indazole] | 227 | – | 174 | Emax (5HT2A receptor [2]; [11]): 109%
Clc1cccc2c(C3CC4CCC(C3)N4)n[nH]c12 (stereo not drawn) [Example 225, 3-(8-azabicyclo[3.2.1]octan-3-yl)-7-chloro-1H-indazole] | 2110 | 105 | 500 | –
Cc1cccc2c(C34CC3CN(C)C4)n[nH]c12 (stereo not drawn) [Example 227, 7-methyl-3-(3-methyl-3-azabicyclo[3.1.0]hexan-1-yl)-1H-indazole] | 1450 | 32.5 | 684 | –
Fc1cc(Cl)c2[nH]nc(C34CNCCC3C4)c2c1 (stereo not drawn) [Example 196, 3-(3-azabicyclo[4.1.0]heptan-1-yl)-7-chloro-5-fluoro-1H-indazole] | 910 | 67 | 220 | –
